Reference: patent US20220339257A1, “METHODS TO INCREASE THE SENSITIVITY AND REVERSING THE RESISTANCE TO DRUGS” (Biomarker Strategies, LLC, priority 2019, published 2022)

B1: interferon-alpha-1 (protein, UniProt P01562 24-189, looked up)
Interferon alpha-1/13: CDLPETHSLDNRRTLMLLAQMSRISPSSCLMDRHDFGFPQEEFDGNQFQKAPAISVLHELIQQIFNLFTTKDSSAAWDEDLLDKFCTELYQQLNDLEACVMQEERVGETPLMNADSILAVKKYFRRITLYLTEKKYSPCAWEVVRAEIMRSLSLSTNLQERLRRKE
notes: enhancer molecule, cytokine purchased from Sigma

Legend:
Experiment in all cases: WST-8 cell viability assay
Format in all cases: cell-based
BICR-16 = conditions: in combination with IFN-γ, 72 hours
Method: (§1) Day 1: cells were harvested cells from flask (4 mL accutase for T175 for 3-5 minutes), and spin down for 5 mins at 1200 rpm. The supernatant was poured off, and the pellet gently resuspended in 1 mL media. Countess counts were performed, and the cells were diluted in media (10% FBS). With multi-channel pipette, 2500 cells were seeded in 100 uL of media (10% FBS) in each well of 96 well plate. The cells were let to adhere and grow for 24 hours. Day 2: serial drug dilutions of MTAs+/−EMs at 5× of concentrations (as done above) were performed in media (10% FBS). 20 uL of media form each well of the 96 well plate (80 uL media left in wells) was removed, and 20 uL of appropriate 5× drug dilutions was added to each respective well (for a 1× conc). The cells were incubated with drug for 72 hours in 37C incubator. Day 5: 10 uL of WST-8 reagent was added to each well of the 96 well plate and mixed gently. the plates were incubated up to 4 hours at 37C in dark, and absorbance readings were taken at […] and 600 nm wavelengths at 1, 2, 3 and 4h, until control absorbance levels were 1.5-2.0).
(§2) WST-8 Assay: MTA and EM effects on cell viability were measured by Cell Counting Kit8 (WST-8) colorimetric assay using water-soluble tetrazolium salt WST-8 reagent (Vita Scientific Cat. #DBOC00128). For the assay, cells were seeded in 96-well plates at 2,500 cells per well, in 100 μL of 10% FBS-containing media. After 24 hours, a 1 nM to 10 μM range of MTA and/or 1 ng/mL to 1 mg/mL range of EM doses was added and incubated for 72 hours. After treatment, a 10% volume of WST-8 reagent was added to each well and cells were incubated at 37° C. for up to 4 hours. Solution absorbance was measured at wavelengths of 450 nm and 600 nm at 1-, 2-, 3-, and 4-hour's incubation. Percentage viability of drug-treated cells was calculated relative to untreated control cells. Results were confirmed by three independent experiments.
(§3) For studying the effects of various molecularly targeted agents (MTAs) and enhancer molecules (EMs) alone as well as in combination: HCC827, PC-9, A427, Calu-6, H2228, H358, H1299, H460, H292, H1838, H2170, and H226 (non-small cell lung cancer; NSCLC); and SK-MES-1 […], CAL27, OE21, KYSE-70, A-253, BICR-16, PE/CA-PJ15 and Ca9-22 (head and neck squamous cell carcinoma; HNSCC); SK-MEL-2, SK-MEL-28, RPMI-7951 and A7 (melanoma); HTB-38 and HCT116 (colorectal cancer; CRC); BxPC-3 and HPAF-II (pancreatic cancer); HEPG2 (hepatocellular carcinoma; HCC); A498 (renal cell carcinoma; RCC) cells were used. Other cell lines, including those from other cancer types, or cells collected from more complex sample types such as xenografts and clinical samples can be used. Ultimately, these combinations can be utilized in various clinical and pre-clinical samples and studies. Using the WST-8 cell viability assay, a MTA+EM-induced anti-cancer/anti-growth activity in multiple cell lines was discovered (FIGS. 8-15). Other viability assays, for example, MTT, HoPI staining, dye exclusion (e.g. trypan blue), can be used readily. […] The cut-off value for classifying a “strong anti-cancer/anti-growth enhancement” was a response resulting in >70% reduction in cell survival compared to untreated control cells (100%), while showing greater reduction compared to both MTA and EM alone.

RPMI-7951 = test system: RPMI-7951
Method: as §1, §2, §3

A498 = conditions: in combination with cetuximab, 72 hours
Method: as §1, §2, §3

PC-9 = conditions: in combination with trametinib; PC-9 (EGFR E746_A750del); 72 hours
Method: as §1, §2, §3

Calu-6 = conditions: in combination with IFN-γ, 72 hours
Method: as §1, §2, §3

HTB-38 = conditions: in combination with IFN-γ, 72 hours
Method: as §1, §2, §3

OE21 = conditions: in combination with GSK-458, 72 hours
Method: as §1, §2, §3

erlotinib-resistant PC-9 = test system: erlotinib-resistant PC-9
Method: as §1, §2, §3

Ca9-22 = test system: Ca9-22
Method: as §1, §2, §3

[1] = in combination with GSK-458, 72 hours
[2] = in combination with trametinib, 72 hours

| Molecule | anti-cancer/growth enhancement (WST-8 cell viability) (BICR-16) | anti-cancer/growth enhancement (WST-8 cell viability) (RPMI-7951; [1]) | anti-cancer/growth enhancement (WST-8 cell viability) (RPMI-7951; in combination with dabrafenib, 72 hours) | anti-cancer/growth enhancement (WST-8 cell viability) (A498) | anti-cancer/growth enhancement (WST-8 cell viability) (PC-9) | anti-cancer/growth enhancement (WST-8 cell viability) (Calu-6) | anti-cancer/growth enhancement (WST-8 cell viability) (HTB-38) | anti-cancer/growth enhancement (WST-8 cell viability) (OE21) | anti-cancer/growth enhancement (WST-8 cell viability) (erlotinib-resistant PC-9; [1]) | anti-cancer/growth enhancement (WST-8 cell viability) (erlotinib-resistant PC-9; [2]) | anti-cancer/growth enhancement (WST-8 cell viability) (Ca9-22; [1]) | anti-cancer/growth enhancement (WST-8 cell viability) (Ca9-22; in combination with GSK-795, 72 hours) | anti-cancer/growth enhancement (WST-8 cell viability) (Ca9-22; in combination with everolimus, 72 hours) | anti-cancer/growth enhancement (WST-8 cell viability) (Ca9-22; in combination with metformin, 72 hours) | anti-cancer/growth enhancement (WST-8 cell viability) (Ca9-22; in combination with osimertinib, 72 hours) | anti-cancer/growth enhancement (WST-8 cell viability) (Ca9-22; [2]) |
| --- | --- | --- | --- | --- | --- | --- | --- | --- | --- | --- | --- | --- | --- | --- | --- | --- |
| tumor necrosis factor-alpha [EM2] | moderate-to-strong anti-cancer/growth enhancement | moderate-to-strong anti-cancer/growth enhancement | moderate-to-strong anti-cancer/growth enhancement | moderate-to-strong anti-cancer/growth enhancement | moderate-to-strong anti-cancer/growth enhancement | moderate-to-strong anti-cancer/growth enhancement | moderate-to-strong anti-cancer/growth enhancement | moderate-to-strong anti-cancer/growth enhancement | moderate-to-strong anti-cancer/growth enhancement | moderate-to-strong anti-cancer/growth enhancement |  |  |  |  |  |  |
| B1 |  |  |  |  |  |  |  |  |  |  | anti-cancer/growth enhancement | anti-cancer/growth enhancement | anti-cancer/growth enhancement | anti-cancer/growth enhancement | anti-cancer/growth enhancement | anti-cancer/growth enhancement |
